Laboratory results taken from US20070032522A1, “Antiviral agents” (priority 2005, published 2007).

System: HCV replicon-containing cells (Huh7/Clone A)
Test: HCV Replicon Assay
Assay type: cell-based
Settings: Hepatitis C virus, Huh-7, 48 hours incubation, HCV replicon RNA by RT-qPCR normalized to total RNA, read-out: IC50 of inhibition of HCV replication
Text: The HCV replicon assay is a cell-culture system that mimics in vivo HCV replication and provides a system to study HCV replication in vitro. It was created by transfecting cloned viral RNA derived from a consensus HCV genomic sequence into human Huh7 hepatoma cells that are semi-permissive for viral RNA production (Lohmann V., Korner F., Koch J.-O., Herian U., Theilmann L. and Bartenschlager R. (1999). Replication of subgenomic Hepatitis C virus RNAs in a hepatoma cell line. Science 285, 110-113 and Blight K. J., Kolykhalov A. A. and Rice C. M. (2000). Efficient initiation of HCV RNA Replication in cell culture. Science 290, 972-1974). […] Replicon-containing cells autonomously and persistently replicate HCV RNA that can be measured quantitatively by real-time qPCR. Therefore, the replicon system facilitates quantitative assessment of anti-viral activity by monitoring changes in HCV RNA replication in a cell-based assay. […]
Total RNA eluted in 130 μl of RNase-freed H2O was quantitated by the RiboGreen Assay according to the supplier's protocol (Molecular Probe). […] RNA samples in the black microplate were mixed with 95 μl of diluted RiboGreen reagent (1:250 dilution in TE buffer) and sample fluorescence was measured using a fluorescence microplate reader at standard fluorescein wavelengths (excitation ˜480 nm, emission ˜520 nm). […]

With `O=C(OCc1ccc(Cl)cc1)c1cn(Cc2ccc(Cl)cc2)c2cc(N3CCNCC3)c(F)cc2c1=O` [Compound 1, 1-(4-chlorobenzyl)-6-fluoro-4-oxo-7-piperazin-1-yl-1,4-dihydro-quinoline-3-carboxylic acid 4-chlorobenzyl ester] the IC50 was < 5 µM.
